Reference: ChEMBL document CHEMBL1201862, “PubChem BioAssay data set” (2004)
Activity calls are given as the source filed them.

Assays:
[1] = NIH-3T3 fibroblast cytotoxicity, dose response, cytotoxicity control, cell-based, fluorescence, Alamar Blue, secondary assay (AID 2327); assay type: functional;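 note: NIH-3T3 mouse fibroblasts cultured with fluconazole at 8 µg/mL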
[2] = biological target: T1, Small ubiquitin-related modifier 1 (Homo sapiens, UniProt P63165); experiment: inhibitors of SUMO1 partner interactions, dose response, biochemical, FRET (AID 624383); assay type: functional; details: read-out: IC50_Mean
[3] = biological target: T2, Ubiquitin-conjugating enzyme E2 N (Homo sapiens, UniProt P61088); assay type: functional
T2 sequence (P61088 whole entry): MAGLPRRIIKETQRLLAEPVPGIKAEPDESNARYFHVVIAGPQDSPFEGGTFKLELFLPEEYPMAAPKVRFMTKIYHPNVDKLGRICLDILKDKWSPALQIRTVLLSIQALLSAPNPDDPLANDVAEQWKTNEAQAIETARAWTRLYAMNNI

[4] = biological target: T2, Ubiquitin-conjugating enzyme E2 N; assay type: functional; remark: listed apart in the source
[5] = biological target: T1, Small ubiquitin-related modifier 1; experiment: inhibitors of SUMO1 peptide binding, dose response, biochemical, fluorescence polarization, uHTS hits (AID 624382); assay type: functional; details: read-out: IC50_Mean
[6] = biological target: T3, Rac GTPase-activating protein 1 (Homo sapiens, UniProt Q9H0H5); experiment: MgcRacGAP GTPase-activating activity inhibitors, confirmation, biochemical, ADP Hunter fluorescence, primary and confirmatory (AID 624330); assay type: functional
T3 sequence (Q9H0H5 whole entry): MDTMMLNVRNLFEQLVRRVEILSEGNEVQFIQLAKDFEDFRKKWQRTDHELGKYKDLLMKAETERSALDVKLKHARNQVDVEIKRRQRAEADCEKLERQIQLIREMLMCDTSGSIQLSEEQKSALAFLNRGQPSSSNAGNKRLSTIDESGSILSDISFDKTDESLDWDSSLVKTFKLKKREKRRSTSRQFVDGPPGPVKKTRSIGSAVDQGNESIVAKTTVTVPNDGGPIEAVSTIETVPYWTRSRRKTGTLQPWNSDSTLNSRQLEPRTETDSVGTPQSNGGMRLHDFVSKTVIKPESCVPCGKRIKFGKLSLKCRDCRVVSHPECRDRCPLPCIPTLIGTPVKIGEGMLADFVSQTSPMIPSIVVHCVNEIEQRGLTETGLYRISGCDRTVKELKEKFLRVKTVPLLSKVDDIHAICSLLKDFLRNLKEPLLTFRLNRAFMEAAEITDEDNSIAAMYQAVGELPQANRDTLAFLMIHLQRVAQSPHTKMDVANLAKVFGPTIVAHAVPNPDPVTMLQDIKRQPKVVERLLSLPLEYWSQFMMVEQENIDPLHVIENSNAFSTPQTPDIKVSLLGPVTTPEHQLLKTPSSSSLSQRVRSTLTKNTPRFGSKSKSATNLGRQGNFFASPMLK

[7] = biological target: T4, DNA repair and recombination protein RAD54-like (Homo sapiens, UniProt Q92698); experiment: inhibitors of human RAD54 branch migration, confirmation, biochemical, fluorescence, cherry-picked samples, dose series (AID 651657); assay type: functional
T4 sequence (Q92698 whole entry): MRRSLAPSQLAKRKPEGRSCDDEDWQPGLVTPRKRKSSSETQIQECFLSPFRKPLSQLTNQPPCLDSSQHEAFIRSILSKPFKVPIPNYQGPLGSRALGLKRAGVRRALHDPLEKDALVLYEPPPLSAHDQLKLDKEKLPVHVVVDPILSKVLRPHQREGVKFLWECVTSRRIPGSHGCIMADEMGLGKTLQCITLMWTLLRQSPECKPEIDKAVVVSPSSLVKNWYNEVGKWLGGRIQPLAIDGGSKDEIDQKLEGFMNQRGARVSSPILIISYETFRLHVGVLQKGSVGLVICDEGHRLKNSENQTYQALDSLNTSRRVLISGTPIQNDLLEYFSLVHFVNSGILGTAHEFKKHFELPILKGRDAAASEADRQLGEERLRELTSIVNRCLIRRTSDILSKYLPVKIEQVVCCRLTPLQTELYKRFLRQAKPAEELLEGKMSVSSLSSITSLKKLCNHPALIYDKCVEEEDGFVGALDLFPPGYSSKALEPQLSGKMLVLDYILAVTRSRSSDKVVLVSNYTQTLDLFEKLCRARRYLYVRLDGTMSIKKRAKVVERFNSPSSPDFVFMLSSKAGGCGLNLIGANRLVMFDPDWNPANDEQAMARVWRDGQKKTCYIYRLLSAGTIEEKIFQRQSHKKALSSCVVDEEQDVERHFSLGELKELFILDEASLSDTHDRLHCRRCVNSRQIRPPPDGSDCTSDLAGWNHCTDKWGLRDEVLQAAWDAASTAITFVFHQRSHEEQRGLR

[8] = C. albicans growth with fluconazole, confirmation, fluorescence, retest (AID 2467); assay type: functional, cell-based
Bcl-2-related protein A1 = biological target: T5, Bcl-2-related protein A1 (Mus musculus, UniProt Q07440); assay type: functional;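 note: confirmatory dose–response counterscreen on Bfl-1, used to check hits from a UBC13 polyubiquitin inhibitor campaign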
T5 sequence (Q07440 whole entry): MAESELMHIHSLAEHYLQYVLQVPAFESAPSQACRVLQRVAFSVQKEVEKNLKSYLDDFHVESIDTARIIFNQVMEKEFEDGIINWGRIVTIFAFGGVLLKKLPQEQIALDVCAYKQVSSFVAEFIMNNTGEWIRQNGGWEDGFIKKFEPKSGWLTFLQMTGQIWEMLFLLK

P388/ADR = experiment: cells; assay type: functional; details: Mus musculus
SN12K1 = experiment: cells; assay type: functional; details: Homo sapiens
[9] = miR-122 activators in hepatoma reporter cells, dose response, cell-based, Huh7 psiCHECK-miR122, Renilla luciferase, cherry-picked (AID 651956); assay type: functional;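 note: huh7 hepatoma cells stably carrying a psiCHECK-2 miR-122 sensor plasmid; renilla luciferase signal reporting endogenous miR-122 activity after 48 h compound exposure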
[10] = biological target: T6, Sentrin-specific protease 8 (Homo sapiens, UniProt Q96LD8); assay type: functional
T6 sequence (Q96LD8 whole entry): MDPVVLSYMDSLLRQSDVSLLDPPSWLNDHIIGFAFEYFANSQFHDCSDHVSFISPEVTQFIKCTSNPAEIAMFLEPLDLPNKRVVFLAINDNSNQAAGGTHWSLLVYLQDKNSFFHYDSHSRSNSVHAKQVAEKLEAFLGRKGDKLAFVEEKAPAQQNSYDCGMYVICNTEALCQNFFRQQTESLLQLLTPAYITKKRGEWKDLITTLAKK

[11] = biological target: T6, Sentrin-specific protease 8; assay type: functional; remark: listed apart in the source
Prothrombin = Prothrombin (Bos taurus, UniProt P00735); experiment: thrombin inhibition, dose response, biochemical, fluorescence polarization, uHTS hits (AID 602369); assay type: functional
[12] = biological target: T7, Carboxy-terminal domain RNA polymerase II polypeptide A small phosphatase 1 (Homo sapiens, UniProt Q9GZU7); experiment: inhibitors of CTDSP1, concentration-response testing, biochemical assay, absorbance-based, actives from ultra-high-throughput screening (AID 540297); assay type: functional
T7 sequence (Q9GZU7 whole entry): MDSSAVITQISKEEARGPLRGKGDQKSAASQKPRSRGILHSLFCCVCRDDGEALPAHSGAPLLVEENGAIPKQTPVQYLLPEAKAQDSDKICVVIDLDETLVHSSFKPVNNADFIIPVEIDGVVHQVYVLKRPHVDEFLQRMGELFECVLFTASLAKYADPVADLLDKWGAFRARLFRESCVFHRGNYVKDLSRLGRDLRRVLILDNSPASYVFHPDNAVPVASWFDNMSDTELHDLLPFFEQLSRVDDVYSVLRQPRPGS

Aminopeptidase N = biological target: T8, Aminopeptidase N (Plasmodium falciparum FcB1/Columbia, UniProt O96935); experiment: P. falciparum M1AAP inhibitors, biochemical, fluorogenic H-Leu-NHMec substrate, 1536-well (AID 1445); set-up: species or system Plasmodium falciparum 3D7, 3D7
T8 sequence (O96935 whole entry): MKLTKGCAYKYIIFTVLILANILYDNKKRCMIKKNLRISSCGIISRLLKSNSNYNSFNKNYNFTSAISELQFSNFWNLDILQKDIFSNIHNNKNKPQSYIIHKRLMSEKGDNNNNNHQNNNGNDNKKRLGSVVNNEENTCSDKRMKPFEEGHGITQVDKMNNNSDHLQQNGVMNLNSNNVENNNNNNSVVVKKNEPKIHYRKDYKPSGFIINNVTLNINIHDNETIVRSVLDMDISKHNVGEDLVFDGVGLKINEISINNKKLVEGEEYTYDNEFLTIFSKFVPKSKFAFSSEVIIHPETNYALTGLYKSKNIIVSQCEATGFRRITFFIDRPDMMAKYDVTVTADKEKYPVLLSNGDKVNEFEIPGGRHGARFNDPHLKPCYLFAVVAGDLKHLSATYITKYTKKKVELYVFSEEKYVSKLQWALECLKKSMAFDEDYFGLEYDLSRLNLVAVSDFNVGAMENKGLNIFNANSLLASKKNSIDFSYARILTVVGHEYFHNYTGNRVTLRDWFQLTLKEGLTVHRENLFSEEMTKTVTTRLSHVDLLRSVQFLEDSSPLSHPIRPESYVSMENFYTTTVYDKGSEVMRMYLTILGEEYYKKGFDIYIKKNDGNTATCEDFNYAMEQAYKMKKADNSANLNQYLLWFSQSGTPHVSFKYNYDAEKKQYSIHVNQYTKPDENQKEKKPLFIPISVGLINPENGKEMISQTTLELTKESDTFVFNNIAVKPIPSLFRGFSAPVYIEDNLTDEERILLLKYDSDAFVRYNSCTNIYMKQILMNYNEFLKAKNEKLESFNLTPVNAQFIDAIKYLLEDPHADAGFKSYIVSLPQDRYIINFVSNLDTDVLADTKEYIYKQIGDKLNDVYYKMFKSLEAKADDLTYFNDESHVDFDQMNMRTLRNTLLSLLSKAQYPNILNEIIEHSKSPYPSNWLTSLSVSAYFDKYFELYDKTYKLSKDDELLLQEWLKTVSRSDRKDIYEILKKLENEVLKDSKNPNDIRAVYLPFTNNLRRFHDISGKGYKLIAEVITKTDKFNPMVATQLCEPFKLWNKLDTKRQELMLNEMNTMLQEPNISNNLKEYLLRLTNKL

[13] = biological target: 26S proteasome non-ATPase regulatory subunit 14 (Homo sapiens, UniProt O00487); experiment: inhibition of proteasome subunit RPN11 – biochemical, fluorescence polarization, uHTS hits, confirmation (AID 602368); assay type: functional
[14] = biological target: 72 kDa type IV collagenase (Homo sapiens, UniProt P08253); experiment: Dose Response validation of uHTS RPN11 inhibitor hits using a MMP-2 Fluorescence assay.; assay type: functional
72 kDa type IV collagenase, sequence (P08253 whole entry): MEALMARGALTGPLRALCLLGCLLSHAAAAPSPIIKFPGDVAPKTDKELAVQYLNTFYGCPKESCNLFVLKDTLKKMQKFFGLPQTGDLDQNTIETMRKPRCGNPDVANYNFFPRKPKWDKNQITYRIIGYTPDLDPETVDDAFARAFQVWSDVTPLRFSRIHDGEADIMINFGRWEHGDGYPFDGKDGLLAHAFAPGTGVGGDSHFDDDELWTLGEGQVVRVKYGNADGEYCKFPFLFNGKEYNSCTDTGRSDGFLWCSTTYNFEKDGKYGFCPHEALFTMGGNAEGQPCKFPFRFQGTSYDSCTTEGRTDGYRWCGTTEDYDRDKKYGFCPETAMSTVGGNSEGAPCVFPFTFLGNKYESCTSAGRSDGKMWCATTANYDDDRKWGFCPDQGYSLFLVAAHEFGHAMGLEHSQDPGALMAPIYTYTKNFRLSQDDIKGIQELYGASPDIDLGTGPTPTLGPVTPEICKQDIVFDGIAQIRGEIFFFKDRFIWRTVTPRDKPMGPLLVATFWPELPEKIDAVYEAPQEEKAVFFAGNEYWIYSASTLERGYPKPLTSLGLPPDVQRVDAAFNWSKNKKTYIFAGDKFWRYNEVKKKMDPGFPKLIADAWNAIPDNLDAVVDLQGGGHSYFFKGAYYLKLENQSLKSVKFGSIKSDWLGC

T1 sequence (P63165 whole entry): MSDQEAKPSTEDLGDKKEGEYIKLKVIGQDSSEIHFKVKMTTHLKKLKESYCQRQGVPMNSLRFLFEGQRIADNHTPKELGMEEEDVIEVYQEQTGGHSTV
26S proteasome non-ATPase regulatory subunit 14, sequence (O00487 whole entry): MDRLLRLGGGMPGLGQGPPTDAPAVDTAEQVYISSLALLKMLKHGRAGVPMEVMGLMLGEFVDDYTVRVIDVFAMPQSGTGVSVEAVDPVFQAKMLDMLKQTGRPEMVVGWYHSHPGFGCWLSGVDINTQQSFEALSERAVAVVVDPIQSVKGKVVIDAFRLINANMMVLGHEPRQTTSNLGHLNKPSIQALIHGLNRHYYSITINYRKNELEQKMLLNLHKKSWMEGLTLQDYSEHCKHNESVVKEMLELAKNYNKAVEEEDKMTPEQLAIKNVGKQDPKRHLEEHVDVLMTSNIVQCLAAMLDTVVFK

In the case of O=C(Nc1ccc(C2=NCCN2)cc1)c1ccc(C(=O)Nc2ccc(C3=NCCN3)cc2)c(Cl)c1, the EC50 [1] is reported as > 160 µM (inactive), the IC50 [2] is reported as 4.61 µM (active) and the IC50 [3] is reported as 3.32 µM (active). For the same compound, the IC50 [4] was 1.7 µM (active), the IC50 [5] was > 66.6 µM (inactive) and the IC50 [6] was 35.8 µM (active). For the same compound, the AC50 [7] was 13.8 µM (active), the EC50 [8] was 0.157 µM (active) and the IC50 (Bcl-2-related protein A1) was 9.71 µM (active).

In the case of COc1ccc(-n2c(SCC(=O)Nc3cccc(S(N)(=O)=O)c3)nc3ccccc3c2=O)cc1OC, the IC50 [2] is reported as 4.19 µM (active) and the IC50 [5] is reported as > 66.6 µM (inactive).

In the case of C/C(=C/c1c(C)[nH]c(=O)[nH]c1=O)C(=O)O, the GI50 (P388/ADR) is reported as 813 µM (inactive) and the GI50 (SN12K1) is reported as > 1370 µM (inactive).

With CN1C(=O)c2cc(NC(=O)c3cccc(F)c3)ccc2OC[C@@H]2O[C@H](CC(=O)O)CC[C@H]21 the AC50 [9] was 51.2 µM (active).

For O=C1NC(=O)C(Nc2ccccc2)C(=O)N1, the IC50 [10] was 22.5 µM (active) and the IC50 [11] was 28.5 µM (active).

For CCC(=O)N(C)C[C@@H]1[C@H](c2ccc(-c3ccccc3F)cc2)[C@H](CO)N1C(C)=O, the AC50 [9] was 49.5 µM (active).

For COC/C=C/C1=CC2=CC(=O)C(C)(OC(=O)c3cnc4ccccc4n3)C(=O)C2=CN1CCCOC(C)C (stereo unspecified), the IC50 [10] was 19.9 µM (active) and the IC50 [11] was 8.09 µM (active).

With COc1ccccc1N1C(=N)S/C(=C\c2ccc(-c3ccccc3C(=O)O)o2)C1=O the IC50 (Prothrombin) was 68.5 µM (active), the IC50 [12] was 8.51 µM (active) and the IC50 (Aminopeptidase N) was 21.7 µM (active). The IC50 [13] was 24.8 µM (active) and the IC50 [14] was > 100 µM (inactive).

With CCCCCCC(=O)Nc1nc(C)c(-c2csc(Nc3cc(OC)ccc3OC)n2)s1 the IC50 [2] was 11.2 µM (active) and the IC50 [5] was > 66.6 µM (inactive).
